Molecules are shown by their SMILES. Entries after “also recorded” stand apart in the source; their conditions may differ. Where two headings read alike, the source gives them in different places.

The values that follow come from patent US4435566A, “Thiopyranopyrimidine compounds and acid addition salts thereof” (Maruko Seiyaku Co., Ltd., priority 1982, dated 1984).

One series concerns platelet aggregation. In words: Inhibition of platelet aggregation in platelet-rich plasma (aggregometer). The class given is cell-based, rabbits (male). As to conditions: for IC50: Oryctolagus cuniculus, Platelet; for Percent Inhibition, Collagen: Collagen (5 × 10^-4 g/ml). The method, then: A blood sample drawn from a jugular vein of unanesthetized male rabbits (body weight: 2.2 to 2.6 kg) was mixed with a 3.8% aqueous sodium citrate solution in a proportion of 9:1 (by volume) and the mixture was centrifuged at 1,000 rpm for 10 minutes to obtain a platelet-rich plasma (about 5×10^5 platelets/mm^3, hereinafter "PRP"). To […] of PRP was added […] of an aqueous solution of the test compound and, after 2 hours, to the mixture was added either an adenosine diphosphate (ADP) solution (final concentration: 5×10^-6 M), a sodium arachidonate solution (final concentration: 5×10^-4 M) or collagen. The percent platelet aggregation was determined using an aggregometer and the inhibition of platelet aggregation by the test compound was calculated.

Series [1] deals with Alloxan Diabetes Rats. Put plainly: Hypoglycemic activity (b)(1): effect on alloxan diabetes rats, blood sugar 2 hours after oral administration. The format is in vivo, rats (Wister male). As to conditions: for % Change in Blood Sugar Level / Blood Sugar Level Mean ± S.E.: 2 hours after administration; for Blood Sugar Level Mean ± S.E.: alloxan 30 mg/kg i.v. Here is the method: (1) Alloxan was administered intravenously at a dose of 30 mg/kg from a tail vein to Wister male rats weighing 200 to 218 g. Three days after administration, the test compound was administered orally to the rats and the blood sugar level was determined before and 2 hours after administration of the test compound.

The subject of series [2] is Alloxan Diabetes Mice. Put plainly: Hypoglycemic activity (a): effect on alloxan diabetes mice, blood sugar 2 hours after oral administration. The class given is in vivo, mice (ddY male). As to conditions: for % Change in Blood Sugar Level / Blood Sugar Level Mean ± S.E.: 2 hours after administration; for Blood Sugar Level Mean ± S.E.: alloxan 40 mg/kg i.v. The method, then:
Alloxan was administered intravenously at a dose of 40 mg/kg from a tail vein to ddY male mice weighing 28.2 to 29.5 g. Seven days after administration, the test compound was administered orally to the mice and the blood sugar level was determined before and 2 hours after the administration of the test compound.

Series [3] has as its system Alloxan Diabetes Mice. Put plainly: Hypoglycemic activity (c): effect on alloxan diabetes mice, ED20. The format is in vivo, mice (ddY male). The following applies: Mus musculus; oral; 3 hours after administration; alloxan 50 mg/kg i.v. Here is the method:
(§1) Alloxan was administered intravenously at a dose of 50 mg/kg from a tail vein to 5W ddY male mice weighing 23 to 27 g (10 […] per group). Seven days after administration, the test compound was administered orally to the mice and a blood sample was collected from the sacrificed mice after 3 hours. The blood sugar level of the sample was determined by the o-toluidine-boric acid method. The percent inhibition was calculated from the values in test group and the control, and a 20% inhibitory effective dose (ED20) was determined from a dose response curve.

Series [4] is described as follows: Acute toxicity (Behrens-Karber method). The following applies: mouse, in vivo, mortality one week after administration. The method, then:
The test compound was administered orally (p.o.) or intravenously (i.v.) from a tail vein to ddY male mice weighing 24±2 g. The LD50 values were calculated by the Behrens-Karber method [Arch. exp. Path. Pharmak., 177, 379 (1935)] from the mortality one week after administration.

The next series relates to Normal Mice. Put plainly: Hypoglycemic activity (d): effect on normal mice, ED20. The class given is in vivo, mice (ddY male). The following applies: Mus musculus; oral; 3 hours after administration. The method, then:
as §1
The test compound was administered orally to 6W ddY male mice and, 3 hours after administration, a blood sample was drawn from the sacrificed mice. The blood sugar level of the sample was determined and ED20 values were calculated in the same manner as described in (c) above.

Series [5] concerns the target T1, ileum of Hartley male guinea pig (histamine) (Cavia porcellus, UniProt P31389).
T1 construct: The ileum of Hartley male guinea pig (body weight: 350-400 g) was extracted and suspended in a Magnus tube; from tissue; host or cells: isolated ileum of Hartley male guinea pig
In words: Anti-histamine activity on isolated ileum (Magnus tube, cumulative technique). The following applies: for Kb: Tyrode solution, 25±0.5° C., histamine added after 5 minutes, read-out: pA2 Value (converted). Here is the method:
The ileum of Hartley male guinea pig (body weight: 350-400 g) was extracted and suspended in a Magnus tube containing 40 ml of Tyrode solution and the muscle movement was recorded on a soot paper via an isotonic Hebel. The solution in the Magnus tube was maintained at 25±0.5° C. during the test and test compound was previously added to the solution.

The subject of series [6] is Alloxan Diabetes Rats. Put plainly: Hypoglycemic activity (b)(2): effect on alloxan diabetes rats, time course of blood sugar (o-toluidine-boric acid method). The format is in vivo, rats (Wister male). More on the design: unit not given here. The following applies: 100 mg/kg, oral. The method, then:
(2) Alloxan was administered intravenously at a dose of 18 mg/kg to 9-10W Wister male rats weighing 240 to 280 g. Three days after administration, the test compound was administered orally to the rats (after fasting for 4 hours) and the blood sugar level was determined before and 1, 2 and 3 hours after administration of the test compound with respect to the blood samples drawn from the jugular vein by the o-toluidine-boric acid method.

Where [7] appears, read: rabbit PRP, sodium arachidonate final concentration 5×10^-4 M, read-out: OC50, Arachidonic Acid.
Setting [8] is: rabbit PRP, ADP final concentration 5×10^-6 M, read-out: IC50, ADP.

T1 sequence (P31389 whole entry): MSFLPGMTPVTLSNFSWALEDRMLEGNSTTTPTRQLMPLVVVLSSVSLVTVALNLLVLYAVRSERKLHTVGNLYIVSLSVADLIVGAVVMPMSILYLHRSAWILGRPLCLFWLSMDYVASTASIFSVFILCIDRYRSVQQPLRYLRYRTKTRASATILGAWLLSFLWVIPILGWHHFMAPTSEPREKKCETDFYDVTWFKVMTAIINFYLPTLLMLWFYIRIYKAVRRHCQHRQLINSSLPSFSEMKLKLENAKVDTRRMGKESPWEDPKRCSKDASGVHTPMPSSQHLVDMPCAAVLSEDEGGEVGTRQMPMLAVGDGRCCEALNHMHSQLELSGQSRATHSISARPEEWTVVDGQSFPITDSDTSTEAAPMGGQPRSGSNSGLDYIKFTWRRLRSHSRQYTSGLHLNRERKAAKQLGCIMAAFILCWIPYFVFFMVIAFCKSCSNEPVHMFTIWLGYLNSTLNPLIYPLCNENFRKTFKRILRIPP

On to `CC(=O)Oc1ccccc1C(=O)O` [Acetylsalicylic Acid (Aspirin), Acetylsalicylic Acid, reference compound], for which the IC50 with platelet aggregation (read-out: IC50, ADP) came to 2000 µM; in the series with platelet aggregation (read-out: OC50, Arachidonic Acid) it was 180 µM.
As for `CCCCNC(=N)NC(=N)N` [Buformin, 1-Butyl-biguanide, reference compound], in the series with Alloxan Diabetes Rats [1] (100 mg/kg), the “hypoglycemic activity (in words)” value is on record as “significant hypoglycemic activity”, the “% Change in Blood Sugar Level” value was -22.9% and the “Blood Sugar Level Mean ± S.E.” value stood at 275.5 ± 6.0 mg/dL. Besides, in the series with Alloxan Diabetes Mice [2] (150 mg/kg), the “hypoglycemic activity (in words)” value is “weak hypoglycemic activity”, the “% Change in Blood Sugar Level” value was -15.3% and the “Blood Sugar Level Mean ± S.E.” value is 273.3 ± 28.7 mg/dL.
With `CN1CCN(c2nc(N)c3c(n2)CCCS3)CC1` [Compound A, 4-amino-2-(N-methylpiperazino)-7,8-dihydro-6H-thiopyrano[3,2-d]pyrimidine], the ED20 came to 60 mg/kg with Alloxan Diabetes Mice [3] and 127 mg/kg in the series with Normal Mice. For the same compound, the LD50 at 168 h in series [4] (po, read-out: LD50, p.o.) came out at 1450 mg/kg.
The corresponding values for `CNc1nc(N2CCNCC2)nc2c1SCCC2` [Compound B, 4-methylamino-2-piperazino-7,8-dihydro-6H-thiopyrano[3,2-d]pyrimidine] are 53 mg/kg, 37 mg/kg and 580 mg/kg.
The matching figures for `Nc1nc2c(c(N3CCNCC3)n1)SCCC2.O=C(O)/C=C\C(=O)O.O=C(O)/C=C\C(=O)O` [Compound C, 2-amino-4-piperazino-7,8-dihydro-6H-thiopyrano[3,2-d]pyrimidine dimaleate]: 47 mg/kg, 230 mg/kg and 1400 mg/kg.
The corresponding values for `Nc1nc(N2CCNCC2)nc2c1SCCC2` [Compound D, 4-Amino-2-piperazino-7,8-dihydro-6H--thiopyrano[3,2-d]pyrimidine Dimaleate] are 52 mg/kg, 11 mg/kg and 820 mg/kg.
Take `C1CSc2c(nc(N3CCNCC3)nc2N2CCCC2)C1.O=C(O)/C=C\C(=O)O` [Compound E, 2-piperazino-4-pyrrolidino-7,8-dihydro-6H-thiopyrano[3,2-d]pyrimidine maleate]: in series [5], the “anti-histamine activity compared with Diphenhydramine (in words)” value was “substantially equal to that of Diphenhydramine” and the Kb is 0.0427 µM. Moreover, in the series on Alloxan Diabetes Mice [2] (200 mg/kg), the “hypoglycemic activity (in words)” value was “significant hypoglycemic activity”, the “% Change in Blood Sugar Level” value is reported as -36.3% and the “Blood Sugar Level Mean ± S.E.” value worked out at 205.5 ± 29.3 mg/dL. Moreover, the LD50 at 168 h in series [4] (iv, read-out: LD50, i.v.) was 125 mg/kg. Besides, the LD50 at 168 h in series [4] (po, read-out: LD50, p.o.) turned out to be 1170 mg/kg.
Take `CN1CCN(c2nc3c(c(N4CCCC4)n2)SCCC3)CC1.O=C(O)/C=C\C(=O)O` [Compound F, 2-(N-methylpiperazino)-4-pyrrolidino-7,8-dihydro-6H-thiopyrano[3,2-d]pyrimidine maleate]: the IC50 in the series with platelet aggregation (setting [7]) was found to be 30 µM. Moreover, the “Percent Inhibition, Collagen” value in the series on platelet aggregation (rabbit PRP) is 73%. Further, in series [5], the “anti-histamine activity compared with Diphenhydramine (in words)” value is given as “substantially equal to that of Diphenhydramine” and the Kb was 0.0204 µM. Besides, in series [4] (iv, read-out: LD50, i.v.), the LD50 at 168 h amounted to 100 mg/kg. Besides, in series [4] (po, read-out: LD50, p.o.), the LD50 at 168 h came out at 1250 mg/kg.
With `C1CSc2c(nc(N3CCNCC3)nc2N2CCOCC2)C1.O=C(O)/C=C\C(=O)O` [Compound G, 4-morpholino-2-piperazino-7,8-dihydro-6H-thiopyrano[3,2-d]pyrimidine maleate], the “% Change in Blood Sugar Level” value in the series on Alloxan Diabetes Rats [1] (100 mg/kg) is recorded as -30.2%; in the series with Alloxan Diabetes Mice [2] (200 mg/kg), -39.5%. In addition, the “Blood Sugar Level Mean ± S.E.” value in the series on Alloxan Diabetes Rats [1] (100 mg/kg) was determined as 286.3 ± 76 mg/dL; in the series with Alloxan Diabetes Mice [2] (200 mg/kg) it was 195.2 ± 39.7 mg/dL. In addition, the “hypoglycemic activity (in words)” value is “significant hypoglycemic activity; also recorded: strongest activity” in the series on Alloxan Diabetes Rats [1] (100 mg/kg, maleate) and “significant hypoglycemic activity” in the series on Alloxan Diabetes Mice [2] (200 mg/kg). Moreover, the IC50 in the series on platelet aggregation (setting [8]) came to 150 µM; in the series with platelet aggregation (setting [7]), 750 µM. The “Percent Inhibition, Collagen” value in the series on platelet aggregation (rabbit PRP) is recorded as 95%. In addition, the LD50 at 168 h in series [4] (iv, read-out: LD50, i.v.) came to 135 mg/kg; in series [4] (po, read-out: LD50, p.o.) it was 960 mg/kg. Also, the “Blood Sugar Level Mean ± S.E., After 1 Hr.” value with Alloxan Diabetes Rats [6] (1 hour after administration, fasted 4 hours) is on record as 141.3 ± 10.4. The “Blood Sugar Level Mean ± S.E., After 2 Hrs.” value with Alloxan Diabetes Rats [6] (2 hours after administration, fasted 4 hours) was determined as 130.6 ± 12.6. The “Blood Sugar Level Mean ± S.E., After 3 Hrs.” value in the series on Alloxan Diabetes Rats [6] (3 hours after administration, fasted 4 hours) is 130.3 ± 10.3. Further, the “Blood Sugar Level Mean ± S.E., Before” value with Alloxan Diabetes Rats [6] (before administration (baseline)) was 189.5 ± 9.4.
For the compound `CN1CCN(c2nc3c(c(N4CCOCC4)n2)SCCC3)CC1` [Compound H, 2-(N-methylpiperazino)-4-morpholino-7,8-dihydro-6H-thiopyrano[3,2-d]pyrimidine], the results for the IC50 in the series with platelet aggregation (setting [8]) and in the series with platelet aggregation (setting [7]) were 1000 µM and 8.4 µM, respectively. The “Percent Inhibition, Collagen” value in the series on platelet aggregation (rabbit PRP) was 65%. Further, the LD50 at 168 h is 200 mg/kg in series [4] (iv, read-out: LD50, i.v.) and 1580 mg/kg in series [4] (po, read-out: LD50, p.o.).
For `CCCCNC(=O)NS(=O)(=O)c1ccc(C)cc1` [Tolbutamide, 1-Butyl-3-(p-tolylsulfonyl)-urea, reference compound], in the series on Alloxan Diabetes Rats [1] (300 mg/kg), the “hypoglycemic activity (in words)” value is listed as “significant hypoglycemic activity”, the “% Change in Blood Sugar Level” value is reported as -18.6% and the “Blood Sugar Level Mean ± S.E.” value turned out to be 285.2 ± 2.8 mg/dL. In addition, in the series with Alloxan Diabetes Mice [2] (500 mg/kg), the “hypoglycemic activity (in words)” value is “weak hypoglycemic activity”, the “% Change in Blood Sugar Level” value is -13.7% and the “Blood Sugar Level Mean ± S.E.” value came out at 278.4 ± 25.7 mg/dL.
